Tested on: Pyrenophora teres
Test: activity against net blotch of barley caused by Pyrenophora teres, 1-day-protective application
Format: in vivo, Pyrenophora [syn. Drechslera] teres on barley seedlings
Conditions: individual active compound, barley seedlings, assessed after 6 days
Protocol: The active compounds, separately or jointly, were prepared as a stock solution comprising 0.25% by weight of active compound in acetone or DMSO. 1% by weight of the emulsifier Uniperol® EL (wetting agent having emulsifying and dispersant action based on ethoxylated alkylphenols) was added to this solution, and the mixture was diluted with water to the desired concentration.
Use example—activity against net blotch of barley caused by Pyrenophora teres, 1-day-protective application.
Leaves of pot-grown barley seedlings were sprayed to run-off point with an aqueous suspension having the concentration of active compound stated below. 24 hours after the spray coating had dried on, the test plants were inoculated with an aqueous spore suspension of Pyrenophora [syn. Drechslera] teres, the causative agent of net blotch. The test plants were subsequently placed in a greenhouse at temperatures of between 20 and 24° C. and at 95 to 100% relative atmospheric humidity. After 6 days, the extent of development of the disease was determined visually in % infection of the total leaf area.
The visually determined percentages of infected leaf areas were converted into efficacies in % of the untreated control:
The efficacy (E) is calculated as follows using Abbot's formula: E=(1−α/β).100 α corresponds to the fungal infection of the treated plants in % and β corresponds to the fungal infection of the untreated (control) plants in %
An efficacy of 0 means that the infection level of the treated plants corresponds to that of the untreated control plants; an efficacy of 100 means that the treated plants were not infected.
The expected efficacies of mixtures of active compounds were determined using Colby's formula (Colby, S. R. “Calculating synergistic and antagonistic responses of herbicide combinations”, Weeds, 15, 20-22, 1967) and compared with the observed efficacies.
Colby's formula: E=x+y−x·y/100 • E expected efficacy, expressed in % of the untreated control, when using the mixture of the active compounds A and B at the concentrations a and b • x efficacy, expressed in % of the untreated control, when using the active compound A at the concentration a
y efficacy, expressed in % of the untreated control, when using the active compound B at the concentration b

In the case of `CC1CCN(c2c(-c3c(F)cc(F)cc3F)c(Cl)nc3ncnn23)CC1` [I, 5-chloro-7-(4-methylpiperidin-1-yl)-6-(2,4,6-trifluorophenyl)-[1,2,4]triazolo[1,5-a]pyrimidine], the “Efficacy in % of the untreated control” value (1.25 ppm in the spray liquor) was 56 % of the untreated control.
With `CC(C)NC(=O)N1CC(=O)N(c2cc(Cl)cc(Cl)c2)C1=O` [II (iprodione), N-isopropyl-3-(3,5-dichlorophenyl)-2,4-dioxoimidazolidine-1-carboxamide] the “Efficacy in % of the untreated control” value (0.25 ppm in the spray liquor) was 0 % of the untreated control, the “Efficacy in % of the untreated control” value (1.25 ppm in the spray liquor) was 0 % of the untreated control and the “Efficacy in % of the untreated control” value (6.25 ppm in the spray liquor) was 0 % of the untreated control.

From patent publication US20070167465A1, “Fungicidal mixtures” (BASF AKTIENGESELLSCHAFT, priority 2004, published 2007)
